Reference: paper PMC9230455 (Pharmaceuticals, 2022)

Experiments:
[1] = system: impaired glucose tolerance (IGT) mice; experiment: Oral glucose tolerance test in impaired glucose tolerance (IGT) mice; type: in vivo, mouse; set-up: AUC of Day 1, Blood glucose level (120 min): unit not given beside the values; conditions: for Blood Glucose Value of 30 min: 30 min after 2.5 g/kg glucose gavage; for Blood Glucose Value of 30 min / Blood Glucose Value of 60 min / Blood Glucose Value of 90 min / Blood Glucose Value of 120 min / Fasting Blood Glucose Level: M ± SD, n = 8; for Blood Glucose Value of 60 min: 60 min after 2.5 g/kg glucose gavage; for Blood Glucose Value of 90 min: 90 min after 2.5 g/kg glucose gavage; for Blood Glucose Value of 120 min: 120 min after 2.5 g/kg glucose gavage
Description: After in vitro experiments were conducted to investigate the DPP-4 inhibition ability and receptor affinity of GLP-1RAs, further in vivo experiments were conducted to compare the hypoglycemic effects of GLP-1RAs on impaired glucose tolerance (IGT) mice. The model of IGT mice was established by a one-week injection of streptozotocin, compared with the normal glucose tolerance (NGT) group, the increase in blood glucose in the IGT group after intragastric glucose administration was statistically significant, and the increase in blood glucose in each experimental group was similar after grouping (as shown in Table A2). Each group was fasted for 9 h before the last administration, fasting blood glucose (FBG) was measured one hour after administration, and then an oral glucose tolerance test (OGTT) was performed.
After fasting for 9 h, the OGTT was performed again the next day. The duration of GLP-1RAs was measured using the second day’s OGTT. […] The blood glucose level of the G1 group was lower than that of the vehicle group at each time point, and the difference was statistically significant. […] The blood sugar of IGT mice can be well controlled at a level equivalent to that of NGT mice, and the effect time of the drug was more than 24 h.
Male KM mice age 6–8 weeks with weight of 18–25 g were selected and injected with STZ at a dose of 40 mg/kg per mouse to establish mouse model of IGT. One week after the injection, OGTT was performed. Blood was collected from the tail tip of each mouse to measure the blood glucose concentration. Mice with blood glucose level increase greater than 200% after intragastric administration of glucose were selected. […] The NGT and vehicle groups were treated with normal saline, and the other groups were treated with the corresponding protein solution diluted to 20 µmol/L with normal saline. Each mouse was injected with 25 µL/10 g body weight. The FBG of each group was measured one hour after the last administration, and then 2.5 g/kg glucose solution was administered by gavage immediately, and blood glucose was measured at 30, 60, 90, and 120 min after gavage. The FBG was measured the same time the next day, and the glucose solution was administered by gavage again at 2.5 g/kg. Blood glucose was measured 30, 60, 90, and 120 min after gavage. The statistical software GraphPad Prism 8.0, was used to process the data. The blood glucose level at each time point was compared between the groups using two-way analysis of variance. p < 0.05 was considered statistically different.

[2] = target: dipeptidyl peptidase-4 (DPP-4) (UniProt P27487)
UniProt P27487, sequence (P27487 whole entry): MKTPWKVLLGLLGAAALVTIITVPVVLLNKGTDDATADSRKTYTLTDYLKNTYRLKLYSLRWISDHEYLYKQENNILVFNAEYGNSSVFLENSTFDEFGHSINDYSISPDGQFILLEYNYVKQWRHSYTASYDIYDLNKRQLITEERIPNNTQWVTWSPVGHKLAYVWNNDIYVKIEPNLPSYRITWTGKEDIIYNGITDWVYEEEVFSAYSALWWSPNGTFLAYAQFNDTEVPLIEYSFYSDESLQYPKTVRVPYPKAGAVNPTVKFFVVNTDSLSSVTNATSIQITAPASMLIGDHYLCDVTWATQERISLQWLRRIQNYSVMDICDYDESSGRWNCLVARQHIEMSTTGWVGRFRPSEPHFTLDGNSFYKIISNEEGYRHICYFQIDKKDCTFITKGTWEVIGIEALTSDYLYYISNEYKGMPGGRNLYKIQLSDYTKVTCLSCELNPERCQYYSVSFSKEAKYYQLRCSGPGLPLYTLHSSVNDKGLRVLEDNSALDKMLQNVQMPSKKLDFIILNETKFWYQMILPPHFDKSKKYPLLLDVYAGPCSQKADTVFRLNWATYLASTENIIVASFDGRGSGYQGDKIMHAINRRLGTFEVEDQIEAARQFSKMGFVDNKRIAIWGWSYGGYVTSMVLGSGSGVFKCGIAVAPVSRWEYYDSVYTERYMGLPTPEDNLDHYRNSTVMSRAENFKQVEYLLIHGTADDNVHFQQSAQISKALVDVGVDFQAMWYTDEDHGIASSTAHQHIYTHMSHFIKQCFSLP

[3] = first day OGTT, 20 µmol/L protein, 25 µL/10 g injected

`CC[C@H](C)[C@H](NC(=O)[C@H](Cc1ccccc1)NC(=O)[C@H](CCC(=O)O)NC(=O)[C@H](CCCCN)NC(=O)[C@H](C)NC(=O)[C@H](C)NC(=O)[C@H](CCC(N)=O)NC(=O)CNC(=O)[C@H](CCC(=O)O)NC(=O)[C@H](CC(C)C)NC(=O)[C@H](Cc1ccc(O)cc1)NC(=O)[C@H](CO)NC(=O)[C@H](CO)NC(=O)[C@@H](NC(=O)[C@H](CC(=O)O)NC(=O)[C@H](CO)NC(=O)[C@@H](NC(=O)[C@H](Cc1ccccc1)NC(=O)[C@@H](NC(=O)CNC(=O)[C@H](CCC(=O)O)NC(=O)[C@H](C)NC(=O)[C@@H](N)Cc1c[nH]cn1)[C@@H](C)O)[C@@H](C)O)C(C)C)C(=O)N[C@@H](C)C(=O)N[C@@H](Cc1c[nH]c2ccccc12)C(=O)N[C@@H](CC(C)C)C(=O)N[C@H](C(=O)N[C@@H](CCCCN)C(=O)NCC(=O)N[C@@H](CCCNC(=N)N)C(N)=O)C(C)C` [GLP-1, Glucagon-like peptide-1] was tested, and the “AUC of Day 1, Blood glucose level (120 min)” value ([1]; first day OGTT in IGT mice, 0-120 min, vehicle 60.54, NGT 40.57) was 47.54, the “Blood Glucose Value of 30 min” value [1, 3] was 18.2 ± 1.9 mmol/L and the “Blood Glucose Value of 60 min” value [1, 3] was 13.6 ± 1.7 mmol/L. For the same compound, the “Blood Glucose Value of 90 min” value [1, 3] was 9.3 ± 2.3 mmol/L, the “Blood Glucose Value of 120 min” value [1, 3] was 7.9 ± 1.3 mmol/L and the “Fasting Blood Glucose Level” value ([1]; first day, IGT mice (STZ, male KM), fasted 9 h, one hour after last administration, 20 µmol/L protein, 25 µL/10 g injected) was 4.9 ± 0.7 mmol/L. The “Fasting Blood Glucose Level” value ([1]; second day (no new dose), IGT mice fasted 9 h) was 5.9 ± 1.1 mmol/L, the “Blood Glucose Value of 30 min” value ([1]; second day OGTT) was 25.1 ± 4.1 mmol/L and the “Blood Glucose Value of 60 min” value ([1]; second day OGTT) was 18.2 ± 3.4 mmol/L. The “Blood Glucose Value of 90 min” value ([1]; second day OGTT) was 11.6 ± 1.9 mmol/L and the “Blood Glucose Value of 120 min” value ([1]; second day OGTT) was 9.2 ± 1.3 mmol/L.

Work on “G2 (GLP-1 receptor agonist: antiparallel β lamellar domain of superoxide dismutase at the amino terminus of GLP-1) (designed binder)” yielded an Area Under Curve of the residual percentage (ELISA) during digestion with excess DPP-4, up to 24 h, 30 °C, PBS pH 7.4 [2] of 1.34.

“G1 (GLP-1 receptor agonist: GLP-1 Val33Cys, linker GCGGGGGG, antiparallel β lamellar domain of superoxide dismutase at the C-terminus) (designed binder)” was tested, and the Area Under Curve of the residual percentage (ELISA) during digestion with excess DPP-4, up to 24 h, 30 °C, PBS pH 7.4 [2] was 5.14.

“G4 (GLP-1 receptor agonist: GLP-1 Ser18Cys with the antiparallel β lamellar domain of superoxide dismutase at the C-terminus, without the linker) (designed binder)” was tested, and the Area Under Curve of the residual percentage (ELISA) during digestion with excess DPP-4, up to 24 h, 30 °C, PBS pH 7.4 [2] was 2.47.

Compound human GLP-1 (glucagon-like peptide-1) has an Area Under Curve of the residual percentage (ELISA) during digestion with excess DPP-4, up to 24 h, 30 °C, PBS pH 7.4 [2] of 1.02.
